The source of these data is patent USRE49873E1, “APP specific bace inhibitors (ASBIs) and uses thereof” (BUCK INSTITUTE FOR RESEARCH ON AGING, priority 2012, dated 2024).

Assay [1] deals with Aβ1-40 and Aβ1-42 levels in hippocampal/entorhinal cortical tissue. In words: Pilot efficacy testing in PDAPP (J20) AD model mice, Aβ ELISA. The note with it: 40 mpk sc daily for 14 days, hippocampus and cortex. It is filed as in vivo. As to the method:
Galangin and progalangin (PG-1) were dissolved in 10% solutol/15% DMSO/75% polyethylene glycol (PEG). Stock solutions were prepared at 10 mg/ml for each compound and 100 ul was injected subcutaneously daily for 14 days at a dose of 40 mkd. There were 5 PDAPP AD model J20 mice in both the galangin and progalangin groups, and 9 vehicle-only treated J20 controls. Mice were anesthetized, blood collected for plasma, and brain tissue collected as described above 2 hours after injection on the last day of treatment. The right hemibrain was further microdissected to isolate hippocampus and entorhinal cortex and this combined tissue was used for biochemical analysis. The remaining tissue and plasma was sent to IAS for compound level analysis.
Aβ1-42 and Aβ1-40 levels were determined using the hippocampal/entorhinal cortical tissue. Briefly, frozen tissue samples were weighed, and a 20% w/v sonicate prepared in 5M guandine-HCl/50 mM Tris, pH8. Sonication was performed with sample tubes in ice water, 4×5 seconds at 60 Hz, then 3×5 seconds at 80 Hz. Samples were then rotated at room temperature for 3 hours and frozen at −20° C. until assay. Invitrogen ELISA kits were used for Aβ1-40 and Aβ1-42 according to the manufacturer's instructions.
For orientation: ELISA stands for enzyme-linked immunosorbent assay.

The target of another assay is MBP-C125 APP (Homo sapiens, UniProt P05067). In words: Nitrocellulose filter ligand-binding (ligand blot) assay. The note with it: qualitative; UV and MALDI detection. As for the experimental part: To explore the interaction of ASBIs with APP a ligand blot technique was used, where MBP-C125 APP was dot blotted on a nitrocellulose blot and binding to the protein was detected upon treatment with the bioflavonoids. A nitrocellulose filter-binding assay with bovine serum albumin (BSA) was used as a control. The binding of bioflavonoids was determined using both UV and MALDI mass spectrometric analysis.
Chain of MBP-C125 APP (P05067 646-770 limits assumed): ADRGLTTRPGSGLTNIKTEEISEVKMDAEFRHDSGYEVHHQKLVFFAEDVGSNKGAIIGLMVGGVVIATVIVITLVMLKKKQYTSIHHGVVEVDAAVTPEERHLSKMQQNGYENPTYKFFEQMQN

For the next assay, the system named is autophagy. The note with it: Wen et al. (2012); cited from earlier work.
The test system of assay [2] is APLP2-Gal4 transactivation in HEK293T cells. Put plainly: APLP2-Gal4/Mint3/TAZ transactivation assay. Conditions: Mint3 and TAZ present, galangin at 10 μM. It is filed as cell-based. The text has this: FIGS. 7A and 7B illustrate inhibition of APP-Gal4 and APLP2-Gal4 transactivation by galangin. […] This transactivation was inhibited by Galangin and BACE inhibitor IV. FIG. 7B: Potent transactivation of transcription was also achieved with APLP2 fused to the Gal4 DNA binding domain when both Mint3 and TAZ were present. This transactivation was inhibited by Galangin and BACE inhibitor IV. […] The normalized luciferase activity is expressed as a percentage of the DMSO treated control (FIGS. 7A, 7B). Error bars indicate SEM. (*, p<0.05; **, p<0.01; ***, p<0.001; n=3, student t test).
This assay system is described by Orcholski et al. (2011) J. Alzheimers Dis., 23(4):689-699. Transactivation is achieved upon transfection with Mint3 and Taz. The ASBI was expected to inhibit only the transactivation of APP-Gal4, not that of APLP2-Gal4. For these experiments cells were co-transfected with a Gal4-luciferase reporter plasmid (to measure transactivation), a beta-galactosidase plasmid (to normalize for transfection efficiency), and the test plasmids identified. The normalized luciferase activity was expressed as fold induction over transcription by APP-Gal4 alone (FIG. 7A), or as fold induction over APLP2-Gal4 alone (FIG. 7B).
HEK293T cells were co-transfected with five plasmids: (1) pG5E1B-luc, 0.3 μg; (2) pCMV-LacZ, 0.1 μg; (3) pMst-APP (APP-Gal4) or pcDNA3.1-APLP2-Gal4, 0.3 μg; (4) pCMV5-Mint3, 1.0 μg; (5) pEF-N-FLAG-TAZ, 1.0 μg. Cells were harvested 48 hr after transfection in 0.2 ml per well Cell Culture Lysis Buffer (Promega), and their luciferase and β-galactosidase activities were determined with the Promega luciferase assay kit and the Promega β-galactosidase assay kit, respectively. The luciferase activity was standardized by the β-galactosidase activity to control for transfection efficiency and general effects on transcription. Transfections were performed at 80-90% cofluency in six-well plates using Lipofectamine 2000 (Invitrogen).

Assay [3] relates to BACE1 cleavage of neuregulin1 in HEK293 cells. Put plainly: Neuregulin1 shedding assay (SEAP-NRG1-β1). The class given is cell-based, human. Conditions: 10 μM, HEK293 cells co-expressing BACE1. As for the experimental part:
Chinese Hamster Ovary (CHO) cells stably over-expressing human APP were treated with 10 μM Galangin or DMSO for 24 hr, then the cell lysates and conditioned media were collected. The levels of full length APP and β-CTF in the cell lysates and the levels of sAPPα in the conditioned media were detected by western blot. […] BACE1-dependent cleavage of SEAP-NRG1-β1 was evaluated by SEAP assays with supernatants of control human embryonic kidney 293 (HEK293) cells (SEAP-NRG1-β1) or HEK293 cells co-expressing BACE1 (SEAP-NRG1-β1+BACE1), treated with DMSO or Galangin (10 μM). An increase in shedding of the SEAP-NRG1-b1 fusion protein was measured upon BACE1 co-expression. Shedding in co-expressing cells was not suppressed by Galangin. Error bars indicate SEM. (N.S., p>0.05; n=4, student t test).
A cDNA construct encoding a human placental secreted alkaline phosphatase (SEAP)-NRG1 (pAPtag5-NRG1-β1) fusion protein was transfected in HEK293 cells in a 6-well format with or without full-length wild-type BACE1 using Lipofectamine 2000 (Invitrogen) as described previously (Vassar et al. (1999) Science, 286: 735-741). After transfection the medium was replaced with DMEM containing 10% heat-inactivated Fetal Bovine Serum and incubated for 24 hr. SEAP activity was measured in the conditioned medium. […] The absorbance was read at 405 nm. […]

For assay [4], the system named is sAPPβ production by SH-SY5Y cells. In words: sAPPβ AlphaLisa in SH-SY5Y neuroblastoma cells. The class given is cell-based. As to the method: APP is processed through two major pathways: the non-amyloidogenic pathway involves α-secretase cleavage, proteolyzing APP into sAPPα and α-CTF (C83), while the amyloidogenic pathway starts with β-secretase cleavage, cleaving APP into sAPPβ and β-CTF (C99). The β-CTF is then cleaved by the γ-secretase, which produces Aβ and AICD. The ability of the ASBIs to inhibit the β-secretase processing of APP was tested in SH-SY5Y neuroblastoma cells that express APP. The sAPPβ fragment formed from the BACE cleavage product was measured using an AlphaLisa assay from Perkin-Elmer (Cat# A2132). […] Testing of a panel of bioflavonoids led to the identification of galangin as an ASBI.

Molecules are shown by their SMILES. Entries after “also recorded” stand apart in the source; their conditions may differ.

In the case of `O=c1c(O)c(-c2ccccc2)oc2cc(O)cc(O)c12` [Galangin], the “Aβ1-42 (Aβ42) levels in brain” value in assay [1] is listed as “unchanged”. In assay [1] (40 mg/kg), the “Aβ1-40 (Aβ40) levels in brain” value is “some reduction of Aβ40; also recorded: slightly lower”. Further, the “binding to the APP substrate” value at MBP-C125 APP is on record as “shows binding to the APP substrate”. Besides, the induction of autophagy result with autophagy is listed as “induce autophagy”. Besides, the APLP2-Gal4 transactivation entry was “inhibited” in assay [2]; “inhibit; also recorded: inhibits APP-Gal4 and APLP2-Gal4” in assay [2] (listed as galangin). Also, in assay [3], the “BACE1-dependent shedding of SEAP-NRG1-β1” value is “does not inhibit BACE1 cleavage of neuregulin1”. For the same compound, the APP levels result in assay [4] is “No effect on APP levels was detected”. The sAPPβ levels result in assay [4] (50 μM) is on record as “decreased sAPPβ levels”.
